Values of other authors as cited in patent US20100129448A1, “TOPICAL HYDROGEL COMPOSITION” (Nanotherapeutics, Inc., priority 2008, published 2010).

SMILES	aqueous solubility (pH greater than 6)	solubility (neutral pH)
C[C@H]1c2cccc(O)c2C(=O)C2=C(O)[C@]3(O)C(=O)C(C(N)=O)=C(O)[C@@H](N(C)C)[C@@H]3[C@@H](O)[C@@H]21 [Doxycycline Monohydrate]	less than 0.8 mg/ml	–
C[C@H]1c2cccc(O)c2C(=O)C2=C(O)[C@]3(O)C(=O)C(C(N)=O)=C(O)[C@@H](N(C)C)[C@@H]3[C@@H](O)[C@@H]21 [Doxycycline]	–	less than 10 mg/ml
